According to patent US20070213291A1, “Therapeutically useful synthetic oligonucleotides” (priority 1999, published 2007):

Assays:
[1] = test system: Jurkat human leukemia T cells; assay: Inhibition of Jurkat human leukemia T cell proliferation (MTT reduction); assay type: cell-based; settings: 100 μg/ml sequence, 48 h, 2.5×10^5 cells/ml
How it was run: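 Jurkat cells at 2.5×10^5 cells/ml exposed to 100 μg/ml of 2–45-base A/C/G/T sequences (0 μg/ml control) for 48 h, 37° C, 5% CO2. Viability by MTT reduction read at 570 nm.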

[2] = test system: LNCaP human prostate cancer cells; assay: Inhibition of LNCaP cell proliferation (MTT); assay type: cell-based; settings: 100 μg/ml, 48 h, 5×10^5 cells/ml
Method: (§1) Cells were seeded in 6 (1 ml/well), 24 (0.5 ml/well) or 96 (0.1 ml/well) well flat-bottom microplates and were maintained at 37° C. in a 5% CO2 atmosphere. Unless stated otherwise, 2.5×10^5 cells/ml were incubated with 0 μg/ml (control) and 100 μg/ml (treated) of 2 to 45 base sequences containing A, C, G and T for 48 h.
(§2) Cell proliferation was measured using dimethylthiazol-diphenyl-tetrazolium (MTT) reduction (Mosman et al. J. Immunol. Methods 65:55, 1983). MTT was measured at a wavelength of 570 nm using a multiplate spectrophotometer reader (ELX800, Bio-TEK Instruments Inc., Winooski, Vt.).
LNCaP prostate cancer cells are a TGF-beta 1 receptor negative, […], metastatic human solid tumor model. LNCaP cells (5×10^5 cells/ml) were incubated with 6 base GT sequences (Table 9).

[3] = test system: THP-1 human acute monocytic leukemia cells; assay: Cytokine production by THP-1 cells (ELISA); assay type: cell-based; settings: THP-1, 1×10^6 cells, 100 μg/ml, 48 h; for ↑ IL-12 (fold increase treated vs control cells): p70 complex and free p40
How it was run: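 1×10^6 cells exposed to 100 μg/ml of each oligonucleotide sequence for 48 h at 37° C in 5% CO2, unless stated otherwise. Cytokines quantified in culture supernatant by ELISA, IL-12 assay detecting both p70 and free p40; values are fold increase over untreated control cells.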

[4] = test system: MCF-7 human breast cancer cells; assay: Inhibition of MCF-7 cell proliferation (MTT); assay type: cell-based; settings: 100 μg/ml, 48 h, 5×10^5 cells/ml
Method: as §1, §2
MCF-7 human breast cancer cells are a caspase 3 negative, estrogen-dependent human solid tumor model. MCF-7 cells (5×10^5 cells/ml) were incubated with 3 and 6 base GT sequences (Table 7).

caspase 3 and caspase 7 = assay: Caspase 3 and caspase 7 activation by peptide-sequence constructs in Jurkat cells; assay type: cell-based, human; settings: 72 h, present-tense example
Method: Reactive carboxylate and reactive amine groups are deprotected subsequent to conjugation,
To determine caspase activation, control and treated cells are washed, fixed, permeabilized and incubated with an FITC-conjugated antibody that recognizes the active form of the caspase (Pharmingen, San Diego, Calif.) using the conditions recommended by the manufacturer. Fluorescence associated with active caspase 3 is analyzed by flow cytometry on a FACSCALIBUR using the program CellQUEST (Becton Dickinson). Alternatively, caspase activation is determined colorimetrically using an assay based on the cleavage of a caspase-specific peptide conjugated to the color reporter molecule p-nitroanilide, which can be quantitated spectrophotometrically at a wavelength of 405 nm.
Jurkat human leukemia T cells are incubated for 72 h with NH2—YVAD-CO-GG(GT)GG, NH2-DEVD-CO-GG(GT)GG, NH2—EGD-COO-GG(GT)GG, NH2-YVAD-CO-[…], NH2-DVED-CO-[…] and NH2—IEGD-CO-[…]. Caspase 3 and caspase 7 activation are determined.

[5] = test system: Jurkat human leukemia T cells; assay: NuMA release into supernatant (ELISA); assay type: cell-based; settings: Jurkat, 50 μM sequence
Method: (§3) The redistribution of phosphatidylserine in the plasma membrane during apoptosis was measured by flow cytometry using FITC-conjugated annexin V (BD Pharmingen, San Diego, Calif.). NuMA release into the supernatant was determined using a commercial ELISA kit (Oncogen/Calbiochem, Cambridge, Mass.).
Jurkat human leukemia T cells were incubated with 50 μM of 3, 4, 5, 6 and 7 GT base sequences, a 5 base ACGT sequence, 6 base AG, GG, AGT and CGT sequences and a 7 base GG sequence.
Jurkat human leukemia T cells (1×10^6/ml) were incubated with 6 and 27 GT base sequences (Table 32). NuMA was determined as in Example 23.
Jurkat human cell leukemia T cells were incubated for 24 h with 6 base GT SEQ ID NO:25, complementary 6 base AC SEQ ID NO:79, and 6 base GT SEQ ID NO:25+6 base AC SEQ ID NO:79. GT SEQ ID NO:25 and AC SEQ ID NO:79 were hybridized by mixing the sequences (1:1) and heating for 10 minutes at 65° C. As controls, GT SEQ ID NO:25 and AC SEQ ID NO:79 were heated for 10 minutes at 65° C. (Table 33). Apoptosis was evaluated as in Example 23.

[6] = test system: PC-3 human prostate cancer cells; assay: Inhibition of PC-3 cell proliferation (MTT); assay type: cell-based; settings: 100 μg/ml, 48 h, 5×10^5 cells/ml
Method: as §1, §2
PC-3 prostate cancer cells are a p53 mutated, androgen-independent human solid tumor model. PC-3 cells (5×10^5 cells/ml) were incubated with 3 and 6 base GT sequences (Table 8).

[7] = test system: Jurkat human leukemia T cells; assay: Apoptosis by phosphatidylserine/annexin V-FITC flow cytometry; assay type: cell-based; settings: 50 μM sequence
Method: as §3
Jurkat human leukemia T cells were incubated with 50 μM of 3, 4, 5, 6 and 7 GT base sequences, a 5 base ACGT sequence, 6 base AG, GG, AGT and CGT sequences and a 7 base GG sequence. […]
Jurkat human leukemia T cells were incubated with GT-rich or AC-rich sequences derived from the murA gene of Mycobacterium phlei (GenBank: Accession Number X99776). Inhibition of proliferation was measured by the reduction of MTT as in Example 3, cell cycle arrest was detected by flow cytometry using propidium iodide as in Example 21 and apoptosis was evaluated by flow cytometry using annexin-V-FITC as in Example 23.

[8] = test system: D-17 canine osteosarcoma cells; assay: Inhibition of D-17 cell proliferation (MTT); assay type: cell-based; settings: 100 μg/ml, 48 h, 5×10^5 cells/ml
Method: as §1, §2
(§4) D-17 canine osteosarcoma cells and CF-51 canine mammary gland cancer cells are solid tumor models. D-17 canine osteosarcoma cells (5×10^5 cells/ml) (Table 20) and CF-51 canine mammary gland cancer cells (5×10^5 cells/ml) (Table 21) were incubated with 6, 9, 17, 27 and 33 base GT-sequences and with a 15 base ACG sequence.

[9] = test system: CF-51 canine mammary gland cancer cells; assay: Inhibition of CF-51 cell proliferation (MTT); assay type: cell-based; settings: 100 μg/ml, 48 h, 5×10^5 cells/ml
Method: as §1, §2, §4

GGTGGG [SEQ ID NO:24 phosphorothioate]
% INHIBITION of Jurkat human leukemia T cell proliferation [1]: 6% | % INHIBITION of LNCaP human prostate cancer cell proliferation [2]: −17% | ↑ IL-12 (fold increase treated vs control cells) [3]: −0.1x | % INHIBITION of MCF-7 human breast cancer cell proliferation [4]: 12%

GTGTGT [SEQ ID NO:10 phosphorothioate]
% INHIBITION of Jurkat human leukemia T cell proliferation [1]: 0% | % INHIBITION of LNCaP human prostate cancer cell proliferation [2]: −20% | ↑ IL-12 (fold increase treated vs control cells) [3]: −0.2x | % INHIBITION of MCF-7 human breast cancer cell proliferation [4]: 12%

NH2-DEVD-CO-GG(GT)GG [NH2-DEVD-CO-GT]
processing of inactive caspase 3 and caspase 7 to active forms (caspase 3 and caspase 7): induce processing of inactive caspase 3 to active caspase 3 and of inactive caspase 7 to active caspase 7

NH2-DVED-CO-AACCACAAGCCCAAC [NH2-DVED-CO-ACG]
processing of inactive caspase 3 and caspase 7 to active forms (caspase 3 and caspase 7): do not induce processing of inactive pro-caspase 3 to active caspase 3 or of inactive caspase 7 to active caspase 7

NH2-YVAD-CO-AACCACAAGCCCAAC [NH2—YVAD-CO-ACG]
processing of inactive caspase 3 and caspase 7 to active forms (caspase 3 and caspase 7): do not induce processing of inactive pro-caspase 3 to active caspase 3 or of inactive caspase 7 to active caspase 7

NH2—EGD-COO-GG(GT)GG [NH2—IEGD-COO-GT]
processing of inactive caspase 3 and caspase 7 to active forms (caspase 3 and caspase 7): induce processing of inactive caspase 3 to active caspase 3 and of inactive caspase 7 to active caspase 7

NH2—IEGD-CO-AACCACAAGCCCAAC [NH2—IEGD-CO-ACG]
processing of inactive caspase 3 and caspase 7 to active forms (caspase 3 and caspase 7): do not induce processing of inactive pro-caspase 3 to active caspase 3 or of inactive caspase 7 to active caspase 7

NH2—YVAD-CO-GG(GT)GG [NH2—YVAD-CO-GT]
processing of inactive caspase 3 and caspase 7 to active forms (caspase 3 and caspase 7): induce processing of inactive caspase 3 to active caspase 3 and of inactive caspase 7 to active caspase 7

TGT (chemistry not given here) [SEQ ID NO:7]
% INHIBITION of Jurkat human leukemia T cell proliferation [1]: 22% | % NuMA released (treated vs untreated cells) [5]: 35% | % INHIBITION of PC-3 human prostate cancer cell proliferation [6]: 8% | ↑ IL-6 (fold increase treated vs control cells) [3]: 2.7x | % INHIBITION of MCF-7 human breast cancer cell proliferation [4]: −6% | % of cells in apoptosis (positive for PS/A-V staining) [7]: 10%

TGTGTG [SEQ ID NO:9 phosphorothioate] (phosphorothioate backbone)
% INHIBITION of Jurkat human leukemia T cell proliferation [1]: −17% | % INHIBITION of LNCaP human prostate cancer cell proliferation [2]: −16% | ↑ IL-12 (fold increase treated vs control cells) [3]: −0.1x | % INHIBITION of MCF-7 human breast cancer cell proliferation [4]: 6%

TGTGTGTGTGTGTGTGTG (unmodified DNA) [SEQ ID NO:17]
% INHIBITION of Jurkat human leukemia T cell proliferation [1]: 56% | % INHIBITION of D-17 canine osteosarcoma cell proliferation [8]: 8% | ↑ IL-6 (fold increase treated vs control cells) [3]: 2.2x | % INHIBITION of CF-51 canine mammary gland cancer cell proliferation [9]: 8%

TTGTTT [SEQ ID NO:26 phosphorothioate]
% INHIBITION of Jurkat human leukemia T cell proliferation [1]: 0% | % INHIBITION of LNCaP human prostate cancer cell proliferation [2]: −1% | ↑ IL-12 (fold increase treated vs control cells) [3]: −0.1x | % INHIBITION of MCF-7 human breast cancer cell proliferation [4]: 6%

TTTGTT [SEQ ID NO:23 phosphorothioate] (phosphorothioate backbone)
% INHIBITION of Jurkat human leukemia T cell proliferation [1]: 4% | % INHIBITION of LNCaP human prostate cancer cell proliferation [2]: −11% | ↑ IL-12 (fold increase treated vs control cells) [3]: 0.1x | % INHIBITION of MCF-7 human breast cancer cell proliferation [4]: 8%
